Reference: US9732067B2, “Compounds and methods for activating the apoptotic arm of the unfolded protein response” (University of Kansas, priority 2012, dated 2017)
Values joined by “and” are separate entries in the source; they are usually repeats but may differ in a detail not shown here. Equal values may be shown once.

How the values were obtained:
PAMPA permeability = assay type: in vitro ADME
Protocol: The PAMPA (Parallel Artificial Membrane Permeability Assay) assay was used as an in vitro model of passive, transcellular permeability. An artificial membrane immobilized on a filter was placed between a donor and acceptor compartment. At the start of the test, drug was introduced in the donor compartment. Following the permeation period, the concentration of drug in the donor and acceptor compartments was measured using UV spectroscopy.

[1] = Aqueous solubility in pION's buffer; assay type: physicochemical
Source text: Solubility was highest at the physiological of pH 7.4.

Plasma stability, human = assay type: in vitro ADME
Source text: Plasma stability is a measure of the stability of small molecules and peptides in plasma and is an important parameter, which strongly can influence the in vivo efficacy of a test compound. Drug candidates are exposed in plasma to enzymatic processes (proteinases, esterases), and they can undergo intramolecular rearrangement or bind irreversibly (covalently) to proteins. ML291 appeared to be moderately stable in human plasma (˜84% remaining), but less so in mouse plasma (˜52% remaining).

TOV112D (ovarian) = assay: Proliferation, TOV112D; assay type: cell-based; conditions: Homo sapiens, 24 hours
Protocol: To determine whether ML291 could reduce the proliferation of malignant cells, a panel of OSCC (UMSCC23, A253, HN6, HN12, HN30, H460/T800) and ovarian cancer (RMG-1, TOV112D, A2780 and SKOV3) cell lines, were treated with increasing doses (0.15-20 μM) of ML291 for 24 hours (FIGS. 3A and 3B).

Which results are given for `O=C(Nc1ccc(S(=O)(=O)N2CCC(Cl)CC2)cc1)c1ccc([N+](=O)[O-])o1` [ML291, N-(4-((4-chloropiperidin-1-yl)sulfonyl)phenyl)-5-nitrofuran-2-carboxamide]?
PAMPA Permeability, Pe (PAMPA permeability; Donor pH 5.0, Acceptor pH 7.4): 291 ×10⁻⁶ cm/s; PAMPA Permeability, Pe (PAMPA permeability; Donor pH 6.2, Acceptor pH 7.4): 329 ×10⁻⁶ cm/s; PAMPA Permeability, Pe (PAMPA permeability; Donor pH 7.4, Acceptor pH 7.4): 245 ×10⁻⁶ cm/s; PAMPA permeability (PAMPA permeability; donor pH 5.0, 6.2 and 7.4): good permeability; solubility over its EC50 ([1]; EC50 762 nM): 11-13 fold; solubility ([1]; aqueous buffer (pION's buffer), aqueous buffer, pH range of 5.2-7.4, read-out: solubility in aqueous buffers): 8.7 µM to 9.7 µM and 3.6 µg/mL to 4 µg/mL; Aqueous Solubility in pION's buffer ([1]; pH 5.0): 3.6 μg/mL and 8.7 μM; Aqueous Solubility in pION's buffer ([1]; pH 6.2): 3.8 μg/mL and 9.2 μM; Aqueous Solubility in pION's buffer ([1]; pH 7.4): 4.0 μg/mL and 9.7 μM; remaining in human plasma (Plasma stability, human): ~84%; Plasma Stability (% Remaining at 3 hours @ 37° C.) (Plasma stability, human; Human): 85.58%; IC50 (TOV112D (ovarian)): 6.59 µM
